Test results taken from ChEMBL document CHEMBL6182926, “Design, Synthesis, and Biological Activity Evaluation of Deuterated Diphenyl Azole Alcohol-Based CYP51 Inhibitors” (J Med Chem, 2025).
≈ marks a conversion by molar mass, not a printed value.

Assays:
Type in all cases: functional
Candida albicans [1] = assay: Antifungal activity against Candida albicans SC 5314 assessed as inhibition of visible growth
Candida albicans [2] = assay: Antifungal activity against Candida albicans CPCC 400616 assessed as inhibition of visible growth
Candida tropicalis = assay: Antifungal activity against Candida tropicalis CGMCC 2.3739 assessed as inhibition of visible growth
Candida parapsilosis = assay: Antifungal activity against Candida parapsilosis GIM 2.190 assessed as inhibition of visible growth; conditions: Lodderomyces parapsilosis
Nakaseomyces glabratus = assay: Antifungal activity against Clinical isolate Candida glabrata assessed as inhibition of visible growth
Pichia kudriavzevii = assay: Antifungal activity against Candida krusei AS 2.1045 assessed as inhibition of visible growth
Cryptococcus neoformans = assay: Antifungal activity against Cryptococcus neoformans CGMCC 2.3161 assessed as inhibition of visible growth

`CN(Cc1ccc(-c2ccc(-c3ccccc3)cc2)cn1)CC(O)(Cn1cncn1)c1ccc(F)cc1F` (stereo not drawn) was tested, and the MIC80 (Candida albicans [1]) was 0.012 mg/L (≈ 0.0235 µM), the MIC80 (Candida albicans [2]) was 0.012 mg/L (≈ 0.0235 µM) and the MIC80 (Candida tropicalis) was 0.012 mg/L (≈ 0.0235 µM). It also gave an MIC80 (Candida parapsilosis) of 0.012 mg/L (≈ 0.0235 µM), an MIC80 (Nakaseomyces glabratus) of 0.1 mg/L (≈ 0.195 µM) and an MIC80 (Pichia kudriavzevii) of 0.1 mg/L (≈ 0.195 µM). It also gave an MIC80 (Cryptococcus neoformans) of 0.05 mg/L (≈ 0.0977 µM).

In the case of `CN(Cc1ccc(-c2ccc(OC(F)(F)F)cc2)cn1)CC(O)(Cn1cncn1)c1ccc(F)cc1F` (stereo not drawn), the MIC80 (Candida albicans [1]) is reported as 0.012 mg/L (≈ 0.0231 µM), the MIC80 (Candida albicans [2]) is reported as 0.012 mg/L (≈ 0.0231 µM) and the MIC80 (Candida tropicalis) is reported as 0.012 mg/L (≈ 0.0231 µM). It also gave an MIC80 (Candida parapsilosis) of 0.006 mg/L (≈ 0.0116 µM), an MIC80 (Nakaseomyces glabratus) of 0.05 mg/L (≈ 0.0963 µM) and an MIC80 (Pichia kudriavzevii) of 0.025 mg/L (≈ 0.0481 µM). It also gave an MIC80 (Cryptococcus neoformans) of 0.025 mg/L (≈ 0.0481 µM).

With `Cc1ccc(-c2ccc(CN(C)CC(O)(Cn3cncn3)c3ccc(F)cc3F)nc2)cc1` (stereo not drawn) the MIC80 (Candida albicans [1]) was 0.25 mg/L (≈ 0.556 µM), the MIC80 (Candida albicans [2]) was 0.012 mg/L (≈ 0.0267 µM) and the MIC80 (Candida tropicalis) was 0.012 mg/L (≈ 0.0267 µM). For the same molecule, the MIC80 (Candida parapsilosis) was 0.1 mg/L (≈ 0.222 µM), the MIC80 (Nakaseomyces glabratus) was 1.6 mg/L (≈ 3.56 µM) and the MIC80 (Pichia kudriavzevii) was 0.2 mg/L (≈ 0.445 µM). The MIC80 (Cryptococcus neoformans) was 0.8 mg/L (≈ 1.78 µM).

For `CN(Cc1ccc(-c2ccc(C(F)(F)F)cc2)cn1)CC(O)(Cn1cncn1)c1ccc(F)cc1F` (stereo not drawn), the MIC80 (Candida albicans [1]) was 0.012 mg/L (≈ 0.0238 µM), the MIC80 (Candida albicans [2]) was 0.012 mg/L (≈ 0.0238 µM) and the MIC80 (Candida tropicalis) was 0.012 mg/L (≈ 0.0238 µM). The MIC80 (Candida parapsilosis) was 0.006 mg/L (≈ 0.0119 µM), the MIC80 (Nakaseomyces glabratus) was 0.05 mg/L (≈ 0.0993 µM) and the MIC80 (Pichia kudriavzevii) was 0.05 mg/L (≈ 0.0993 µM). The MIC80 (Cryptococcus neoformans) was 0.025 mg/L (≈ 0.0497 µM).

In the case of `CN(Cc1ccc(-c2ccc(Cl)c(F)c2)cc1)CC(O)(Cn1cncn1)c1ccc(F)cc1F` (stereo not drawn), the MIC80 (Candida albicans [1]) is reported as 0.006 mg/L (≈ 0.0123 µM), the MIC80 (Candida albicans [2]) is reported as 0.006 mg/L (≈ 0.0123 µM) and the MIC80 (Candida tropicalis) is reported as 0.006 mg/L (≈ 0.0123 µM). For the same molecule, the MIC80 (Candida parapsilosis) was 0.006 mg/L (≈ 0.0123 µM), the MIC80 (Nakaseomyces glabratus) was 0.025 mg/L (≈ 0.0513 µM) and the MIC80 (Pichia kudriavzevii) was 0.012 mg/L (≈ 0.0246 µM). It also gave an MIC80 (Cryptococcus neoformans) of 0.012 mg/L (≈ 0.0246 µM).

`CN(Cc1ccc(-c2ccc(C(F)(F)F)cc2)s1)CC(O)(Cn1cncn1)c1ccc(F)cc1F` (stereo not drawn) gave an MIC80 (Candida albicans [1]) of 0.012 mg/L (≈ 0.0236 µM), an MIC80 (Candida albicans [2]) of 0.006 mg/L (≈ 0.0118 µM) and an MIC80 (Candida tropicalis) of 0.006 mg/L (≈ 0.0118 µM). The MIC80 (Candida parapsilosis) was 0.006 mg/L (≈ 0.0118 µM), the MIC80 (Nakaseomyces glabratus) was 0.4 mg/L (≈ 0.787 µM) and the MIC80 (Pichia kudriavzevii) was 0.1 mg/L (≈ 0.197 µM). The MIC80 (Cryptococcus neoformans) was 0.1 mg/L (≈ 0.197 µM).

`CN(Cc1ccc(-c2ccc(F)cc2)cn1)CC(O)(Cn1cncn1)c1ccc(F)cc1F` (stereo not drawn) gave an MIC80 (Candida albicans [1]) of 0.012 mg/L (≈ 0.0265 µM), an MIC80 (Candida albicans [2]) of 0.012 mg/L (≈ 0.0265 µM) and an MIC80 (Candida tropicalis) of 0.012 mg/L (≈ 0.0265 µM). It also gave an MIC80 (Candida parapsilosis) of 0.012 mg/L (≈ 0.0265 µM), an MIC80 (Nakaseomyces glabratus) of 0.4 mg/L (≈ 0.882 µM) and an MIC80 (Pichia kudriavzevii) of 0.05 mg/L (≈ 0.11 µM). It also gave an MIC80 (Cryptococcus neoformans) of 0.1 mg/L (≈ 0.221 µM).

Work on `CN(Cc1ccc(-c2ccc(OC(F)(F)F)cc2)o1)CC(O)(Cn1cncn1)c1ccc(F)cc1F` (stereo not drawn) yielded an MIC80 (Candida albicans [1]) of 0.025 mg/L (≈ 0.0492 µM), an MIC80 (Candida albicans [2]) of 0.012 mg/L (≈ 0.0236 µM) and an MIC80 (Candida tropicalis) of 0.012 mg/L (≈ 0.0236 µM). It also gave an MIC80 (Candida parapsilosis) of 0.05 mg/L (≈ 0.0983 µM), an MIC80 (Nakaseomyces glabratus) of 0.1 mg/L (≈ 0.197 µM) and an MIC80 (Pichia kudriavzevii) of 0.1 mg/L (≈ 0.197 µM). The MIC80 (Cryptococcus neoformans) was 0.2 mg/L (≈ 0.393 µM).

In the case of `CN(Cc1ccc(-c2ccc(C(F)(F)F)cc2)cc1)CC(O)(Cn1cncn1)c1ccc(F)cc1F` (stereo not drawn), the MIC80 (Candida albicans [1]) is reported as 0.012 mg/L (≈ 0.0239 µM), the MIC80 (Candida albicans [2]) is reported as 0.012 mg/L (≈ 0.0239 µM) and the MIC80 (Candida tropicalis) is reported as 0.012 mg/L (≈ 0.0239 µM). For the same molecule, the MIC80 (Candida parapsilosis) was 0.006 mg/L (≈ 0.0119 µM), the MIC80 (Nakaseomyces glabratus) was 0.025 mg/L (≈ 0.0498 µM) and the MIC80 (Pichia kudriavzevii) was 0.025 mg/L (≈ 0.0498 µM). The MIC80 (Cryptococcus neoformans) was 0.05 mg/L (≈ 0.0995 µM).
